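The compound was tested at five concentrations on cells cultured in 96-well plates, with a 48-hour exposure period. GI50 is the concentration that inhibits growth by half.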 Active and inactive are the calls of the source. Cut-off read from the data, not from the text of the source: active = GI50 up to about 1.1 µM and inactive = higher.
What was measured:
Experiment in all cases: NCI anticancer screen, dose series, 48 h
SW-620 = system: SW-620
SK-MEL-5 = system: SK-MEL-5
SK-MEL-2 = system: SK-MEL-2
SNB-19 = system: SNB-19
SF-268 = system: SF-268
UACC-257 = system: UACC-257
U-251 = system: U-251
SK-OV-3 = system: SK-OV-3
HCT-116 = system: HCT-116
786-0 = system: 786-0
OVCAR-8 = system: OVCAR-8
OVCAR-4 = system: OVCAR-4
SF-539 = system: SF-539
MDA-MB-435 = system: MDA-MB-435
IGROV-1 = system: IGROV-1
DU-145 = system: DU-145
KM12 = system: KM12
PC-3 = system: PC-3
A498 = system: A498
HOP-92 = system: HOP-92
OVCAR-3 = system: OVCAR-3
SNB-75 = system: SNB-75
CAKI-1 = system: CAKI-1
HCC 2998 = system: HCC 2998
HOP-62 = system: HOP-62
SF-295 = system: SF-295
LOX IMVI = system: LOX IMVI
UO-31 = system: UO-31
MDA-MB-231 = system: MDA-MB-231
COLO 205 = system: COLO 205
BT-549 = system: BT-549
UACC-62 = system: UACC-62
K562 = system: K562
ACHN = system: ACHN
HCT-15 = system: HCT-15
NCI-H460 = system: NCI-H460
RXF 393 = system: RXF 393
Malme-3M = system: Malme-3M
OVCAR-5 = system: OVCAR-5
T47D = system: T47D
NCI-H522 = system: NCI-H522
TK-10 = system: TK-10
SK-MEL-28 = system: SK-MEL-28
MOLT-4 = system: MOLT-4
CCRF-CEM = system: CCRF-CEM
Hs-578T = system: Hs-578T
MCF7 = system: MCF7
SN12C = system: SN12C
HT-29 = system: HT-29
SR = system: SR
A549 = system: A549
M14 = system: M14
NCI-H226 = system: NCI-H226
NCI/ADR-RES = system: NCI/ADR-RES
EKVX = system: EKVX
NCI-H23 = system: NCI-H23
RPMI-8226 = system: RPMI-8226
HL-60 = system: HL-60

What does the source list for `O=C(/C=C/c1csc(-c2ccccc2)n1)NCc1ccc(C(=O)NCc2ccccc2)cc1`?
GI50 (SW-620): > 100 µM (inactive); GI50 (SK-MEL-5): > 100 µM (inactive); GI50 (SK-MEL-2): > 100 µM (inactive); GI50 (SNB-19): 26.5 µM (inactive); GI50 (SF-268): 35.3 µM (inactive); GI50 (UACC-257): > 100 µM (inactive); GI50 (U-251): 32.9 µM (inactive); GI50 (SK-OV-3): > 100 µM (inactive); GI50 (HCT-116): > 100 µM (inactive); GI50 (786-0): 33 µM (inactive); GI50 (OVCAR-8): 26.4 µM (inactive); GI50 (OVCAR-4): > 100 µM (inactive); GI50 (SF-539): 32.3 µM (inactive); GI50 (MDA-MB-435): > 100 µM (inactive); GI50 (IGROV-1): 37.2 µM (inactive); GI50 (DU-145): > 100 µM (inactive); GI50 (KM12): > 100 µM (inactive); GI50 (PC-3): > 100 µM (inactive); GI50 (A498): 64.9 µM (inactive); GI50 (HOP-92): 24.4 µM (inactive); GI50 (OVCAR-3): > 100 µM (inactive); GI50 (SNB-75): 19.2 µM (inactive); GI50 (CAKI-1): 25.2 µM (inactive); GI50 (HCC 2998): > 100 µM (inactive); GI50 (HOP-62): 11.3 µM (inactive); GI50 (SF-295): 30.4 µM (inactive); GI50 (LOX IMVI): > 100 µM (inactive); GI50 (UO-31): > 100 µM (inactive); GI50 (MDA-MB-231): 18.7 µM (inactive); GI50 (COLO 205): > 100 µM (inactive); GI50 (BT-549): > 100 µM (inactive); GI50 (UACC-62): > 100 µM (inactive); GI50 (K562): > 100 µM (inactive); GI50 (ACHN): 67.1 µM (inactive); GI50 (HCT-15): > 100 µM; GI50 (NCI-H460): > 100 µM (inactive); GI50 (RXF 393): 61 µM (inactive); GI50 (Malme-3M): 92 µM (inactive); GI50 (OVCAR-5): > 100 µM (inactive); GI50 (T47D): > 100 µM (inactive); GI50 (NCI-H522): 64.7 µM (inactive); GI50 (TK-10): 31.9 µM (inactive); GI50 (SK-MEL-28): > 100 µM (inactive); GI50 (MOLT-4): > 100 µM (inactive); GI50 (CCRF-CEM): > 100 µM (inactive); GI50 (Hs-578T): 13.3 µM (inactive); GI50 (MCF7): > 100 µM (inactive); GI50 (SN12C): > 100 µM (inactive); GI50 (HT-29): 41.2 µM (inactive); GI50 (SR): > 100 µM (inactive); GI50 (A549): > 100 µM (inactive); GI50 (M14): > 100 µM (inactive); GI50 (NCI-H226): > 100 µM (inactive); GI50 (NCI/ADR-RES): 50.8 µM (inactive); GI50 (EKVX): > 100 µM (inactive); GI50 (NCI-H23): > 100 µM (inactive); GI50 (RPMI-8226): > 100 µM (inactive)

Which results are given for `COc1cc2c3c(cc(Cl)nc3c1OC)C(=O)C(=O)N2`?
GI50 (SW-620): 5.85 µM (inactive); GI50 (SK-MEL-5): 16.4 µM (inactive); GI50 (SK-MEL-2): 14.1 µM (inactive); GI50 (SNB-19): 22.9 µM (inactive); GI50 (SF-268): 17.4 µM (inactive); GI50 (UACC-257): 8.39 µM (inactive); GI50 (U-251): 16.5 µM (inactive); GI50 (SK-OV-3): 18 µM (inactive); GI50 (HCT-116): 4.33 µM (inactive); GI50 (786-0): 5.94 µM (inactive); GI50 (OVCAR-8): 18.2 µM (inactive); GI50 (OVCAR-4): 1.6 µM (inactive); GI50 (SF-539): 20.2 µM (inactive); GI50 (MDA-MB-435): 1.79 µM (inactive); GI50 (IGROV-1): 9.89 µM (inactive); GI50 (DU-145): 17 µM (inactive); GI50 (KM12): 16.4 µM (inactive); GI50 (PC-3): 14.5 µM (inactive); GI50 (A498): 16.6 µM (inactive); GI50 (HOP-92): 1.81 µM (inactive); GI50 (OVCAR-3): 16.6 µM (inactive); GI50 (SNB-75): 15.7 µM (inactive); GI50 (CAKI-1): 15.1 µM (inactive); GI50 (HCC 2998): 18.2 µM (inactive); GI50 (HOP-62): 19.6 µM (inactive); GI50 (SF-295): 18.6 µM (inactive); GI50 (LOX IMVI): 9.44 µM (inactive); GI50 (UO-31): 13.6 µM (inactive); GI50 (MDA-MB-231): 1.94 µM (inactive); GI50 (COLO 205): 21.9 µM (inactive); GI50 (BT-549): 16.2 µM (inactive); GI50 (UACC-62): 6.28 µM (inactive); GI50 (K562): 2.91 µM (inactive); GI50 (ACHN): 14.7 µM (inactive); GI50 (HCT-15): 19.2 µM; GI50 (NCI-H460): 20.7 µM (inactive); GI50 (RXF 393): 13.6 µM (inactive); GI50 (Malme-3M): 2.06 µM (inactive); GI50 (OVCAR-5): 18 µM (inactive); GI50 (T47D): 3.68 µM (inactive); GI50 (NCI-H522): 4.22 µM (inactive); GI50 (TK-10): 18.7 µM (inactive); GI50 (SK-MEL-28): 17.1 µM (inactive); GI50 (HL-60): 1.36 µM (inactive); GI50 (MOLT-4): 2.34 µM (inactive); GI50 (CCRF-CEM): 1.69 µM (inactive); GI50 (Hs-578T): 30.4 µM (inactive); GI50 (MCF7): 2.05 µM (inactive); GI50 (SN12C): 8.99 µM (inactive); GI50 (HT-29): 22.4 µM (inactive); GI50 (SR): 3.26 µM (inactive); GI50 (A549): 19.7 µM (inactive); GI50 (M14): 15.6 µM (inactive); GI50 (NCI-H226): 21.1 µM (inactive); GI50 (NCI/ADR-RES): 22.5 µM (inactive); GI50 (EKVX): 6.81 µM (inactive); GI50 (NCI-H23): 16.7 µM (inactive); GI50 (RPMI-8226): 2.68 µM (inactive)

From ChEMBL document CHEMBL1201862, “PubChem BioAssay data set” (2004)
